Experimental data: patent US20260315437A1, “COMBINATION OF NAB-SIROLIMUS AND AN ESTROGEN SUPPRESOR FOR USE IN THE TREATMENT OF HORMONE-DEPENDENT CANCERS” (AADI Bioscience, Inc., priority 2023, published 2026)

Key:
[1] = in vivo; cited from earlier work
ABCB1/ABCG2 = conditions: cited from earlier work
mTORC1 at Ser2448 = conditions: cited from earlier work
pAKT = assay: Western blot analysis of pAKT in MCF7 cells; format: cell-based; conditions: fulvestrant combined with nab-sirolimus, FIG. 3, effect on nab-sirolimus-induced increase
Protocol: (§1) A series of single-agent treatments of fulvestrant or nab-sirolimus and combination treatments of both fulvestrant and nab-sirolimus were separately applied to aliquots of hormone receptor positive breast cancer cell lines (either MCF7 or MDA-MB-361). The series including varying concentration of nab-sirolimus (20 nM or 80 nM) and fulvestrant (0.98 nM to 1000 nM). Following the application of the individual treatments, the cell aliquots were incubated for 5 days. Subsequently, the antiproliferative and cytotoxic effects of single agent and combination treatments were assessed using an automated trypan blue exclusion assay.
Western blot analysis was performed to assess pAKT in MCF7 cells. […] Thus, addition of fulvestrant, to mTOR targeting agents, such as nab-sirolimus may overcome mechanisms of resistance.

p4EBP1 = assay: Western blot analysis of p4EBP1 in MCF7 cells; format: cell-based; conditions: single agent, FIG. 3
Protocol: as §1
Western blot analysis was performed to assess p4EBP1 in MCF7 cells. […] Thus, addition of nab-sirolimus to endocrine-based therapies, such as fulvestrant, may overcome mechanisms of resistance.

human plasma proteins = conditions: cited from earlier work
HSA = conditions: cited from earlier work
CYP3A4 = conditions: role: substrate; cited from earlier work

In the case of `COc1ccc(COc2cc3oc(=O)c4cc(C(C)O)ccc4c3cc2OC)cc1` (stereo not drawn) [Palomid 529], the brain penetration [1] is given as “good brain penetration” and the “affinity for ABCB1/ABCG2” value (ABCB1/ABCG2) is given as “lacks affinity for ABCB1/ABCG2”.
For `COc1ccc(-c2ccc3c(N4CCOCC4)nc(N4C[C@@H](C)O[C@@H](C)C4)nc3n2)cc1CO` [KU-0063794], the “inhibition of phosphorylation of mTORC1 at Ser2448” value (mTORC1 at Ser2448) is listed as “inhibits the phosphorylation of mTORC1 at Ser2448 in a dose-dependent and time-dependent manner”.
For `C[C@]12CC[C@@H]3c4ccc(O)cc4C[C@@H](CCCCCCCCC[S+]([O-])CCCC(F)(F)C(F)(F)F)[C@H]3[C@@H]1CC[C@@H]2O` (stereo partly drawn) [fulvestrant], the “pAKT level in combination” value (pAKT) was “reversed by combination with fulvestrant in a dose-dependent manner” and the p4EBP1 level (p4EBP1) was “increased p4EBP1 in response to fulvestrant in a dose-dependent manner”.
In the case of `CC(=O)O[C@@]12CO[C@@H]1C[C@H](O)[C@@]1(C)C(=O)[C@H](O)C3=C(C)[C@@H](OC(=O)[C@H](O)[C@@H](NC(=O)OC(C)(C)C)c4ccccc4)C[C@@](O)([C@@H](OC(=O)c4ccccc4)[C@H]21)C3(C)C` [docetaxel], the “binding to human plasma proteins” value (human plasma proteins) is listed as “shown to bind to human plasma proteins”.
In the case of `CO[C@H]1C[C@@H]2CC[C@@H](C)[C@@](O)(O2)C(=O)C(=O)N2CCCC[C@H]2C(=O)O[C@H]([C@H](C)C[C@@H]2CC[C@@H](O)[C@H](OC)C2)CC(=O)[C@H](C)/C=C(\C)[C@@H](O)[C@@H](OC)C(=O)[C@H](C)C[C@H](C)/C=C/C=C/C=C/1C` [Sirolimus, sirolimus], the “binding to HSA” value (HSA) is given as “shown to bind HSA” and the metabolism (CYP3A4) is given as “metabolized primarily by CYP3A4”.
For `CC(C)c1cccc(C(C)C)c1O` [propofol], the “binding to HSA” value (HSA) is listed as “shown to bind HSA”.
